# Measurements published in patent US20150297593A1 (priority 2012, published 2015).
# Experiments:
# [1] = test system: influenza A virus (Mem71, H3N1); assay type: in vivo, Rag2−/− mice
# [2] = test system: nuocytes (CD45+Lin−ST2+ckit+Sca1+); test: FACS count of BAL and lung nuocytes after rIL-33 in Rag2−/− mice; details: imatinib 100 mg/kg i.p. on day 1, day 5
# Description: In FIGS. 5C and 5D, BAL cells (FIG. 5C) or lung cells (FIG. 5D) were taken from 8 wk old Rag2^−/− mice (n=5 per group) on day 5, and further stimulated with PMA+ionomycin for 5 hr. The percentage of lung CD45^+Lin^−ST2^+ckit^+Sca1^+ cells was assessed by FACS. Third panels show dot plots for Lin^−ST2^+ cells in lung leukocytes (CD45^+). After gating on the Lin^−ST2^+cKit^+ cells, the cells were analyzed for c-Kit and Sca1 expression (fourth panels).
# Whole lungs were flushed with PBS injected into the right ventricle, removed, and rinsed in PBS. […] The digest was passed multiple times through an 18-gauge needle and allowed to incubate for another 30 min before filtered. RBCs were removed by 4-min incubation in lysis buffer (Sigma-Aldrich, St. Louis, Mo.) at room temperature. Single-cell suspensions of spleen lymphocytes were obtained by mechanical disruption and RBC lysis.
# Cells were preincubated with anti-Fcy blocking mAb (2.4G2) and washed before staining. Cells were stained with anti-mouse PE-Texas red-conjugated CD45, FITC-conjugated CD3, CD19, CD11b, CD11c, CD49b, F4/80, Fc□R1; APC conjugated cKit,; PerCP conjugated cKit, Alexa Fluor 700-conjugated Sca1; PE conjugated biotinylated anti-ST2 antibodies. […] Cells were analyzed on a BDCanto flow cytometer (BD Biosciences, Franklin Lakes, N.J.) using FlowJo 8.3.3 software (Tree Star, Inc., Ashland, Oreg.).
# [3] = test system: recombinant IL-33 (rIL-33)-induced AHR; details: mouse, in vivo
# [4] = test system: influenza A virus (Mem71, H3N1); set-up: species or system BALB/c mice; details: mouse, in vivo
# [5] = test system: influenza A virus (Mem71, H3N1); details: 100 mg/kg i.p. on day 1; sera on day 11
# RSV = test: RSV-induced AHR model; assay type: in vivo, BALB/c mice; details: 100 mg/kg i.p. on day 1 post infection
# [6] = test system: human nuocytes isolated from the BAL fluid of patients with asthma; assay type: cell-based; details: imatinib 1 μM; rIL-2 50 ng/ml plus rIL-33 100 ng/ml for 24 hrs
# [7] = test system: mouse lung nuocytes (Lin−ST2+); assay type: cell-based; details: IL-2 50 ng/ml plus rIL-33 100 ng/ml, imatinib 0.1-1 μM
# [8] = test system: nuocytes (CD45+Lin−ST2+cKit+Sca1+); assay type: in vivo, BALB/c mice
# [9] = 100 mg/kg on day 1, day 5 post-infection
# [10] = after imatinib treatment, data not shown
smiles,measurement,setting,value
Cc1ccc(NC(=O)c2ccc(CN3CCN(C)CC3)cc2)cc1Nc1nccc(-c2cccnc2)n1 [imatinib],H3N1 infection-induced inflammation in Rag2−/− mice,"[1]; 100 mg/kg i.p. on day 1, […]",inhibits
same,influenza-induced AHR in Rag2−/− mice,"[1]; mouse, in vivo",blocked
same,number of BAL and lung nuocytes (airway nuocytophilia induced with rIL-33),[2],reduced
same,AHR induced with recombinant IL-33,[3],could block
same,inflammation (BAL fluid cells),[4],abolished
same,lung inflammation (BAL fluid cells),[4],abolished
same,anti-influenza IgG production,[5],no significant reduction
same,development of RSV-induced inflammation,RSV,blocked
same,development of RSV-induced AHR,RSV; assessed 6 days post-infection,blocked
same,production of IL-13 by human nuocytes,[6],blocked
same,secretion of IL-5 by nuocytes (ELISA),[7],reduced
same,secretion of IL-13 by nuocytes (ELISA),[7],reduced
same,proliferation of mouse lung nuocytes (3H-thymidine incorporation),[7]; dose-dependent,blocked
same,total number of NKT cells in the lung,"[8]; 100 mg/kg on day 1, day 5",had no effect
same,total number of conventional T cells in the lung,"[8]; 100 mg/kg on day 1, day 5",had no effect
same,frequency and absolute number of nuocytes in BAL fluid,[8]; [9],reduced
same,frequency and absolute number of nuocytes in the lungs,[8]; [9],reduced
same,frequency of NKT cells in BAL fluid,[8]; [10],slightly reduced
same,total number of BAL fluid cells,[8]; [10],slightly reduced
Cc1ccc(NC(=O)c2ccc(CN3CCN(C)CC3)cc2)cc1Nc1nc(-c2cccnc2)cs1 [masitinib],H3N1-induced AHR,[4],abolished
same,H3N1-induced inflammation,[4],abolished
